Experiments:
Assay type in all cases: cell-based, mouse
[1] = system: α7 integrin (LacZ reporter in α7βgal+/− myoblasts); test: Myoblast α7+/LacZ integrin FDG assay (Burkin assay in myoblasts, 96-well); settings: α7+/LacZ myoblasts, 96-well
[2] = system: α7 integrin (LacZ reporter in α7+/LacZ myotubes); test: Myotube α7 integrin FDG assay (Burkin assay in myotubes, 96-well); settings: myotubes
[3] = system: β-galactosidase in CMV-LacZ C2C12 myoblasts; test: CMV-LacZ secondary screen in C2C12 myoblasts (β-Gal stabilizing assay); settings: CMV-LacZ C2C12 myoblasts
In short: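 Stable CMV-LacZ C2C12 clone; six-point curve 0.5–40 μM; duplicates.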

[4] = system: β-galactosidase in CMV-LacZ C2C12 myotubes; test: CMV-LacZ secondary screen in C2C12 myotubes (β-Gal stabilizing assay); settings: C2C12 CMV-LacZ myotubes, fold relative to DMSO
In short: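 β-Gal level was the read-out, measured in a clonal C2C12 line expressing LacZ from a CMV promoter. Dose-response curves used six concentrations, 0.5 μM up to 40 μM, with duplicate points.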

| Structure (SMILES) | Burkin Assay in Myoblasts, signal relative to DMSO ([1]; 0.5 uM) | Burkin Assay in Myoblasts, signal relative to DMSO ([1]; 1 uM) | Burkin Assay in Myoblasts, signal relative to DMSO ([1]; 5 uM) | Burkin Assay in Myoblasts, signal relative to DMSO ([1]; 10 uM) | Burkin Assay in Myoblasts, signal relative to DMSO ([1]; 20 uM) | Burkin Assay in Myoblasts, signal relative to DMSO ([1]; 40 uM) | Burkin Assay in Myotubes, α7 integrin LacZ reporter signal relative to DMSO ([2]; 0.5 uM) | Burkin Assay in Myotubes, α7 integrin LacZ reporter signal relative to DMSO ([2]; 1 uM) | Burkin Assay in Myotubes, α7 integrin LacZ reporter signal relative to DMSO ([2]; 5 uM) | Burkin Assay in Myotubes, α7 integrin LacZ reporter signal relative to DMSO ([2]; 10 uM) | Burkin Assay in Myotubes, α7 integrin LacZ reporter signal relative to DMSO ([2]; 20 uM) | Burkin Assay in Myotubes, α7 integrin LacZ reporter signal relative to DMSO ([2]; 40 uM) | CMV-LACZ in Myoblasts (β-galactosidase activity relative to DMSO) ([3]; 0.5 uM) | CMV-LACZ in Myoblasts (β-galactosidase activity relative to DMSO) ([3]; 1 uM) | CMV-LACZ in Myoblasts (β-galactosidase activity relative to DMSO) ([3]; 5 uM) | CMV-LACZ in Myoblasts (β-galactosidase activity relative to DMSO) ([3]; 10 uM) | CMV-LACZ in Myoblasts (β-galactosidase activity relative to DMSO) ([3]; 20 uM) | CMV-LACZ in Myoblasts (β-galactosidase activity relative to DMSO) ([3]; 40 uM) | CMV-LACZ in Myotubes, signal relative to DMSO ([4]; 0.5 uM) | CMV-LACZ in Myotubes, signal relative to DMSO ([4]; 1 uM) | further results |
| --- | --- | --- | --- | --- | --- | --- | --- | --- | --- | --- | --- | --- | --- | --- | --- | --- | --- | --- | --- | --- | --- |
| Cc1ccc2c(c1)/C(=C/c1ccco1)C(=O)N2 [MLS000682750-01] | 1.203 | 1.02 | 1.229 | 1.076 | 1.124 | 1.103 | 0.9957 | 0.9939 | 1.073 | 0.8839 | 1.002 | 0.7064 | 0.9679 | 1.0467 | 0.8717 | 0.9934 | 1.1433 | 1.0404 | 1.0248 | 0.9638 | CMV-LACZ in Myotubes, signal relative to DMSO ([4]; 5 uM): 1.1285; CMV-LACZ in Myotubes, signal relative to DMSO ([4]; 10 uM): 1.0939; CMV-LACZ in Myotubes, signal relative to DMSO ([4]; 20 uM): 1.1189; CMV-LACZ in Myotubes, signal relative to DMSO ([4]; 40 uM): 1.0579 |
| O=C(O)c1csc(-c2cccs2)n1 [MLS000760876-01] | 1.0287 | 0.9856 | 1.812 | 0.9113 | 1.102 | 0.9504 | 1.2427 | 1.256 | 1.249 | 0.9755 | 0.8634 | 0.8993 | 0.9069 | 1.0546 | 0.8293 | 0.8973 | 0.9396 | 0.8504 | 1.0248 | 1.1010 | CMV-LACZ in Myotubes, signal relative to DMSO ([4]; 5 uM): 1.1074; CMV-LACZ in Myotubes, signal relative to DMSO ([4]; 10 uM): 0.9789; CMV-LACZ in Myotubes, signal relative to DMSO ([4]; 20 uM): 0.9482; CMV-LACZ in Myotubes, signal relative to DMSO ([4]; 40 uM): 1.2565 |
| CC(=O)Nc1ccc(-n2c(C)nc(=O)c(-c3ccccc3)c2C)cc1 [MLS000078709-01] | 1.063 | 0.996 | 0.8157 | 0.8052 | 0.5171 | 0.2616 | 0.8374 | 0.8236 | 0.9535 | 0.9899 | 0.6311 | 0.4894 | 0.8167 | 0.7008 | 0.9270 | 1.0163 | 0.6919 | 0.4830 | 1.0133 | 0.9257 | CMV-LACZ in Myotubes, signal relative to DMSO ([4]; 5 uM): 0.9348; CMV-LACZ in Myotubes, signal relative to DMSO ([4]; 10 uM): 0.8743; CMV-LACZ in Myotubes, signal relative to DMSO ([4]; 20 uM): 1.0853; CMV-LACZ in Myotubes, signal relative to DMSO ([4]; 40 uM): 1.7737 |

Reference: patent publication US9980943B2, “Methods of treating muscular dystrophy” (BOARD OF REGENTS OF THE NEVADA SYSTEM OF HIGHER EDUCATION, …, priority 2013, dated 2018)
